20 molecules from patent US20220281821A1, “INDAZOLE COMPOUNDS AND THEIR PHARMACEUTICAL COMPOSITIONS” (Jinan University, priority 2019, published 2022) can be followed below.

One assay deals with T1, BaF3-ETV6-NTRK3 (Homo sapiens, UniProt Q16288).
T1 construct: fused on or other part: P41212 (Transcription factor ETV6)
The assay can be described thus: Cell proliferation inhibition (CCK-8), BaF3-ETV6-NTRK3 stable strain. Format: cell-based, mouse. Conditions: BaF3-ETV6-NTRK3, 72 hours. The method, boiled down:
(§1)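 Ba/F3 cells stably electroporated with ETV6-NTRK3, CD74-NTRK1 or ETV6-NTRK2, selected with G418 and grown without IL3, then cloned by limiting dilution.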

A further assay addresses T2, TRKC (Homo sapiens, UniProt Q16288).
T2 construct: purchased life technologies PV3617
In words: Z′-LYTE kinase activity assay, TRKC. Format: biochemical. The settings on record: ATP 50 uM. An excerpt:
(§2) Kinase activity assay: Z′-LYTE™ technology (detection by fluorescence, enzyme-conjugated format, based on the difference in sensitivity of phosphorylated and non-phosphorylated peptides to proteolytic cleavage) was applied, and using the principle of fluorescence resonance energy transfer (FRET), a Z′-LYTE™ FRET peptide substrate (Z′-LYTE™ Tyrosine 1 Peptide Substrate, Invitrogen, PV3190), and a secondary reaction were used to detect the inhibitory activity of the compounds on TRKs (TRK1, TRK2, TRK3) (life technologies, PV3144, PV3616, PV3617).
(§3) Enzymatic reaction: In a 384-well plate, 5 μL of an enzyme-substrate system (50 mM HEPES pH 7.5, 0.01% BRIJ-35, 10 mM MgCl2, 1 mM EGTA, 2 μM Tyr 01 Peptide Substrate) was added and 5 nL of compound (concentration gradient) was transferred thereto by using the echo520 ultramicro liquid pipetting system. […] After shaking and mixing, centrifuging was performed. A reaction was carried out at 30° C. in the dark for 1.5 hours.
(§4) The data were analyzed as follows:
(§5) IC50 values were calculated by using GraphPad Prism 5.0 software.

A further assay deals with T3, TRKB (Homo sapiens, UniProt Q16620).
T3 construct: purchased life technologies PV3616
The assay can be described thus: Z′-LYTE kinase activity assay, TRKB. Format: biochemical. Conditions: ATP 25 uM.
Description: as §2, §3, §4
(§6) Phosphorylation ratio=1−{(emission ratio×F100%−C100%)/[C0%−C100%+emission ratio×(F100%−F0%)]}×100;
(§7) Inhibition rate=100×(1−compound phosphorylation ratio/negative control phosphorylation ratio).
as §5

The next assay deals with T4, BaF3-ETV6-NTRK2 (Homo sapiens, UniProt Q16620).
T4 construct: fused on or other part: P41212 (Transcription factor ETV6)
In words: Cell proliferation inhibition (CCK-8), BaF3-ETV6-NTRK2 stable strain. Format: cell-based, mouse. Conditions: BaF3-ETV6-NTRK2, 72 hours. The procedure, abridged: as §1

The target in another assay is T5, TRKA (Homo sapiens, UniProt P04629).
T5 construct: purchased life technologies PV3144
In words: Z′-LYTE kinase activity assay, TRKA. Format: biochemical. Conditions: ATP 400 uM.
Description: as §2, §3, §4, §6, §7, §5

For the next assay, the target named is T6, BaF3-CD74-NTRK1 (Homo sapiens, UniProt P04629).
T6 construct: fused on or other part: P04233 (HLA class II histocompatibility antigen gamma chain)
The assay can be described thus: Cell proliferation inhibition (CCK-8), BaF3-CD74-NTRK1 stable strain. Format: cell-based, mouse. The settings on record: BaF3-CD74-NTRK1, 72 hours. The method, boiled down: as §1

A value given as a limit tells only on which side of the number the result lay.

T3 sequence (Q16620 32-822): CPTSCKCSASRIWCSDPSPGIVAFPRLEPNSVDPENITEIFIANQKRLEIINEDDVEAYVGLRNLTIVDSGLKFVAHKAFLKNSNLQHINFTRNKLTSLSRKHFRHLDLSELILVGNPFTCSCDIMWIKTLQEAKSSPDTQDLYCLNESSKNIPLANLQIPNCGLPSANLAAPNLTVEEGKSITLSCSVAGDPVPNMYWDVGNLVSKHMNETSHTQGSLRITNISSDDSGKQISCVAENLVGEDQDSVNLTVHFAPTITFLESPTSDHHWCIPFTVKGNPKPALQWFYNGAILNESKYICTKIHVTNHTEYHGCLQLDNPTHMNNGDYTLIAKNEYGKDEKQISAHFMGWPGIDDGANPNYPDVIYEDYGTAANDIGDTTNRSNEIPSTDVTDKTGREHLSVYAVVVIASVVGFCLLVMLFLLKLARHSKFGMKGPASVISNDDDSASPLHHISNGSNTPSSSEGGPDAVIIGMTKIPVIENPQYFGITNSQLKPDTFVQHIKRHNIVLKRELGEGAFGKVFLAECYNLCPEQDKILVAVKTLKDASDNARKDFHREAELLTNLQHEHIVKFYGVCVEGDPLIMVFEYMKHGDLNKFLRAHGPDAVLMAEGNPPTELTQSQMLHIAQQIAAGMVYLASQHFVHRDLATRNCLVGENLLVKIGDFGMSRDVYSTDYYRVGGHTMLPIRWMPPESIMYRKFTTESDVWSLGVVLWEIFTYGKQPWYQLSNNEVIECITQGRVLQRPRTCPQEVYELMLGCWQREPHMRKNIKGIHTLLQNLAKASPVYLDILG
T6 sequence (P04629 510-796 limits assumed): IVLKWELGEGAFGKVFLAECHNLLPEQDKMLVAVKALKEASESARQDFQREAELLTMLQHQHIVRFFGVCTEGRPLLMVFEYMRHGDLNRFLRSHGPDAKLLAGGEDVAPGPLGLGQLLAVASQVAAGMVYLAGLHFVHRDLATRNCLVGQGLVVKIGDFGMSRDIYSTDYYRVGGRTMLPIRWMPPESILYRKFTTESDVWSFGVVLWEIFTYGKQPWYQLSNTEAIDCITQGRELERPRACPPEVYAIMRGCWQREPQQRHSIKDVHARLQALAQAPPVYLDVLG
T2 sequence (Q16288 32-839): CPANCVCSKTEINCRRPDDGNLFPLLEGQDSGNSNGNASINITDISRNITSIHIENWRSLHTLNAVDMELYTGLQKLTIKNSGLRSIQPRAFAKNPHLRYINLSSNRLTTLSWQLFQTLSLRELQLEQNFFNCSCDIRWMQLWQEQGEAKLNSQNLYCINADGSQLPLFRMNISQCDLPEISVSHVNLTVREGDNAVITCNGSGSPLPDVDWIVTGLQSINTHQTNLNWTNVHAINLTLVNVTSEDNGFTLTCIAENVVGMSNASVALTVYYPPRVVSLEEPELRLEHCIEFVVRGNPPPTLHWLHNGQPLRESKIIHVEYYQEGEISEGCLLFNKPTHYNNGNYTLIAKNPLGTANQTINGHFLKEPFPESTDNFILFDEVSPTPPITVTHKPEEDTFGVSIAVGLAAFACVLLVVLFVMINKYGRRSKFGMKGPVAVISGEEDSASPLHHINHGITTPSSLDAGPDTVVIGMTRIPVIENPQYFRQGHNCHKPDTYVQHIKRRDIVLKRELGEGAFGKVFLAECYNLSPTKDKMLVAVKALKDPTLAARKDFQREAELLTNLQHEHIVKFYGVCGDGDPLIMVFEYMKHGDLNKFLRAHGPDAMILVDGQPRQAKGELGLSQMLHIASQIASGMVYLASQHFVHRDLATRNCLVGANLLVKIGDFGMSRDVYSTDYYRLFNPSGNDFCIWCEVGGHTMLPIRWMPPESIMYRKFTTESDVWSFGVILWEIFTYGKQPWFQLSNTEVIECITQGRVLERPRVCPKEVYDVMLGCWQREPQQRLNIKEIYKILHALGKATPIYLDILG
T4 sequence (Q16620 538-822 limits assumed): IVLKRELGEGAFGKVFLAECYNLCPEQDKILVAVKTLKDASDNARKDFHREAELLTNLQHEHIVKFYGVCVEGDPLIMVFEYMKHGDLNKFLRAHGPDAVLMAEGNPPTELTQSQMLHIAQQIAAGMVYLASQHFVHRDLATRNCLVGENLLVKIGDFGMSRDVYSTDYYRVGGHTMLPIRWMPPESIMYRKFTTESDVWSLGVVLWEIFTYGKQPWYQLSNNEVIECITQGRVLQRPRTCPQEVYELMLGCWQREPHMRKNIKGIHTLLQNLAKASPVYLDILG
T5 sequence (P04629 440-796 limits assumed): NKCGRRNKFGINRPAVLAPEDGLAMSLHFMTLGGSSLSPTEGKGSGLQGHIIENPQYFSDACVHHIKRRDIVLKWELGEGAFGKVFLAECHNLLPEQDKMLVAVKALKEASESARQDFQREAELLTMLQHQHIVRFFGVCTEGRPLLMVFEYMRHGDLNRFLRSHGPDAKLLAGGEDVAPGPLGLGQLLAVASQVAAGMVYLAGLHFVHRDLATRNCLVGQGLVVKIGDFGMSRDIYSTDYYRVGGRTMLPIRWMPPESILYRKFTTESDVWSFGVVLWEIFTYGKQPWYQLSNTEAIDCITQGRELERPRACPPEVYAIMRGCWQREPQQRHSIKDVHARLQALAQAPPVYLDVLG
T1 sequence (Q16288 whole entry, the tested form may be a part): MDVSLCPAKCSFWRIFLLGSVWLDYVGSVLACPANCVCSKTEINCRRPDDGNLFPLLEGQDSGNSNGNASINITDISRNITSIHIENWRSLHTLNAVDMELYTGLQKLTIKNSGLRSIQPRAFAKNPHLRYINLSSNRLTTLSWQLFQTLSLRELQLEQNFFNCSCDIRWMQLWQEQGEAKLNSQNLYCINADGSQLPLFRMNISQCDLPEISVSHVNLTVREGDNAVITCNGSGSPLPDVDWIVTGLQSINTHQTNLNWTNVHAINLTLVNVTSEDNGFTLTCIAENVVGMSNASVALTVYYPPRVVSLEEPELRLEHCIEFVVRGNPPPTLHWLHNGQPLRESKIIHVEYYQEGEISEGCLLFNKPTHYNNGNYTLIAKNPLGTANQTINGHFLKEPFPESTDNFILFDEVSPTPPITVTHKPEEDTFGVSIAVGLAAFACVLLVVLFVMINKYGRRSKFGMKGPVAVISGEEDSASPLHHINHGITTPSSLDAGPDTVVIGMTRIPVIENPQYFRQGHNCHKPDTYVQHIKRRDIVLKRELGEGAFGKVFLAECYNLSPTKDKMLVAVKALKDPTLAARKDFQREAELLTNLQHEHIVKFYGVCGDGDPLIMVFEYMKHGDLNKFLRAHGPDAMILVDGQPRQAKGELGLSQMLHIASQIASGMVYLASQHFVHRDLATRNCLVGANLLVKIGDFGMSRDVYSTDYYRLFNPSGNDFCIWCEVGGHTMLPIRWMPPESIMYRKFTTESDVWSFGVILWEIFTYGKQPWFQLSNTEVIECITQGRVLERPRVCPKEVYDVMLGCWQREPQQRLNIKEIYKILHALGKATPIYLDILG

For `Fc1ccc(F)c(Cc2ccc3[nH]nc(/C=C/c4ccccn4)c3c2)c1` [DYX-054, (E)-5-(2,5-difluorobenzyl)-3-(2-(pyridin-2-yl)vinyl)-1H-indazole], the IC50 against BaF3-ETV6-NTRK3 was 145 nM; at TRKC, 5.4 nM; on TRKB, 12.2 nM; against BaF3-ETV6-NTRK2, 329 nM; at TRKA, 7.1 nM; on BaF3-CD74-NTRK1 it was 546 nM.

As to `Fc1cc(F)cc(COc2ccc3[nH]nc(C#Cc4ccccn4)c3c2)c1` [DYX-131, 5-((3,5-difluorobenzyl)oxo)-3-(pyridin-2-ylethynyl)-1H-indazole], the IC50 against BaF3-ETV6-NTRK3 is 2210 nM; on TRKC it was 20 nM; against TRKB, 71.3 nM; against BaF3-ETV6-NTRK2 it was 1610 nM; against TRKA, 31.3 nM; at BaF3-CD74-NTRK1, 2900 nM.

With `Fc1cc(F)cc(Cc2ccc3[nH]nc(/C=C/c4ccccn4)c3c2)c1` [CCB-489, (E)-5-(3,5-difluorobenzyl)-3-(2-(pyridin-2-yl)vinyl)-1H-indazole], the IC50 on BaF3-ETV6-NTRK3 is 56.2 nM; on TRKC, 2.7 nM; against TRKB, 14.4 nM; against BaF3-ETV6-NTRK2, 165 nM; against TRKA, 4.6 nM; against BaF3-CD74-NTRK1, 146 nM.

Regarding `Fc1cc(F)cc(Nc2ccc3[nH]nc(C#Cc4ccccn4)c3c2)c1` [DYX-129, N-(3,5-difluorophenyl)-3-(pyridin-2-ylethynyl)-1H-indazol-5-amine], the IC50 against BaF3-ETV6-NTRK3 is 3150 nM; against TRKC, 575 nM; against TRKB, above 1000 nM; at BaF3-ETV6-NTRK2 it was 2800 nM; at TRKA, above 1000 nM; at BaF3-CD74-NTRK1, 9980 nM.

On to `Fc1cc(F)cc(Oc2ccc3[nH]nc(C#Cc4ccccn4)c3c2)c1` [DYX-092, 5-(3,5-difluorophenoxy)-3-(pyridin-2-ylethynyl)-1H-indazole], for which the concentration for half-maximal inhibition (IC50) amounted to 2770 nM against BaF3-ETV6-NTRK3; 200 nM against TRKC; 310 nM at TRKB; 2610 nM on BaF3-ETV6-NTRK2; 51.7 nM against TRKA; 3060 nM against BaF3-CD74-NTRK1.

For `CN(Cc1cc(F)cc(F)c1)c1ccc2[nH]nc(/C=C/c3ccccn3)c2c1` [DYX-187, (E)-N-(3,5-difluorobenzyl)-N-methyl-3-(2-(pyridin-2-yl)vinyl)-1H-indazol-5-amine], the IC50 at BaF3-ETV6-NTRK3 is 278 nM; against TRKC, 6.2 nM; against TRKB it was 20.3 nM; against BaF3-ETV6-NTRK2 it was 625 nM; at TRKA it was 18.7 nM; against BaF3-CD74-NTRK1 it was 172 nM.

Take `Fc1cccc(F)c1Cc1ccc2[nH]nc(C#Cc3ccccn3)c2c1` [DYX-071, 5-(2,6-difluorobenzyl)-3-(pyridin-2-ylethynyl)-1H-indazole]: the IC50 on BaF3-ETV6-NTRK3 worked out at 2740 nM; against TRKC it was 113 nM; at TRKB, 385 nM; against BaF3-ETV6-NTRK2, 2890 nM; on TRKA, 217 nM; on BaF3-CD74-NTRK1, 7730 nM.

With `Fc1cccc(CNc2ccc3[nH]nc(/C=C/c4ccccn4)c3c2)c1` [DYX-305, (E)-N-(3-fluorobenzyl)-3-(2-(pyridin-2-yl)vinyl)-1H-indazol-5-amine], the IC50 amounted to 22.9 nM at BaF3-ETV6-NTRK3; 1.3 nM against TRKC; 9.5 nM on TRKB; 51.3 nM against BaF3-ETV6-NTRK2; 1.8 nM against TRKA; 28.2 nM on BaF3-CD74-NTRK1.

On to `O=C(Nc1cc(F)cc(F)c1)c1ccc2[nH]nc(/C=C/c3ccccn3)c2c1` [DYX-171, (E)-N-(3,5-difluorophenyl)-3-(2-(pyridin-2-yl)vinyl)-1H-indazole-5-carboxamide], for which the IC50 was 2640 nM on BaF3-ETV6-NTRK3; 532 nM against TRKC; above 1000 nM against TRKB; 2730 nM against BaF3-ETV6-NTRK2; 577 nM against TRKA; 8040 nM against BaF3-CD74-NTRK1.

Regarding `Fc1cccc(Cc2ccc3[nH]nc(C#Cc4ccccn4)c3c2)c1F` [DYX-074, 5-(2,3-difluorobenzyl)-3-(pyridin-2-ylethynyl)-1H-indazole], the half-inhibitory concentration (IC50) amounted to 2200 nM against BaF3-ETV6-NTRK3; 41 nM on TRKC; 435 nM at TRKB; 2830 nM against BaF3-ETV6-NTRK2; 72 nM on TRKA; 2500 nM against BaF3-CD74-NTRK1.

Consider `Fc1ccc(Cc2ccc3[nH]nc(C#Cc4ccccn4)c3c2)c(F)c1` [DYX-051, 5-(2,4-difluorobenzyl)-3-(pyridin-2-ylethynyl)-1H-indazole], for which the IC50 against BaF3-ETV6-NTRK3 was above 10000 nM; against TRKC, above 1000 nM; at TRKB, above 1000 nM; at BaF3-ETV6-NTRK2 it was above 10000 nM; against TRKA, above 1000 nM; on BaF3-CD74-NTRK1, above 10000 nM.

Consider `Fc1cc(F)cc(-c2ccc3[nH]nc(/C=C/c4ccccn4)c3c2)c1` [DYX-119, (E)-5-(3,5-difluorophenyl)-3-(2-(pyridin-2-yl)vinyl)-1H-indazole], for which the IC50 at BaF3-ETV6-NTRK3 was above 10000 nM; at TRKC, 226 nM; against TRKB, above 1000 nM; on BaF3-ETV6-NTRK2, above 10000 nM; against TRKA, 648 nM; against BaF3-CD74-NTRK1 it was above 10000 nM.

For the molecule `O=C(Nc1cc(F)cc(F)c1)Nc1ccc2[nH]nc(/C=C/c3ccccn3)c2c1` [DYX-174, (E)-1-(3,5-difluorophenyl)-3-(3-(2-(pyridin-2-yl)vinyl)-1H-indazol-5-yl)urea], the IC50 at BaF3-ETV6-NTRK3 was found to be 623 nM; on TRKC it was 94.1 nM; on TRKB, 242 nM; against BaF3-ETV6-NTRK2, 1910 nM; against TRKA it was 46.8 nM; against BaF3-CD74-NTRK1 it was 1180 nM.

On to `Fc1cc(F)cc(Cc2ccc3[nH]nc(/C=C/c4cnccn4)c3c2)c1` [DYX-05, (E)-5-(3,5-difluorobenzyl)-3-(2-(pyrazin-2-yl)vinyl)-1H-indazole], for which the IC50 against BaF3-ETV6-NTRK3 is 419 nM; against TRKC it was 6 nM; on TRKB, 10.9 nM; at BaF3-ETV6-NTRK2, 678 nM; at TRKA, 1.6 nM; against BaF3-CD74-NTRK1, 580 nM.

Regarding `Fc1cc(Cc2ccc3[nH]nc(C#Cc4ccccn4)c3c2)cc(F)c1F` [DYX-075, 3-(pyridin-2-ylethynyl)-5-(3,4,5-trifluorobenzyl)-1H-indazole], the IC50 against BaF3-ETV6-NTRK3 is above 10000 nM; at TRKC it was above 1000 nM; against TRKB, above 1000 nM; against BaF3-ETV6-NTRK2 it was above 10000 nM; against TRKA, above 1000 nM; at BaF3-CD74-NTRK1 it was 2480 nM.

As to `O=S(=O)(c1cc(F)cc(F)c1)c1ccc2[nH]nc(C#Cc3ccccn3)c2c1` [DYX-108, 5-((3,5-difluorophenyl)sulfonyl)-3-(pyridin-2-ylethynyl)-1H-indazole], the IC50 was 749 nM at BaF3-ETV6-NTRK3; 21.4 nM against TRKC; 43.1 nM on TRKB; 914 nM on BaF3-ETV6-NTRK2; 8.1 nM at TRKA; 888 nM on BaF3-CD74-NTRK1.

As for `O=S(=O)(c1cc(F)cc(F)c1)c1ccc2[nH]nc(/C=C/c3ccccn3)c2c1` [DYX-114, (E)-5-((3,5-difluorophenyl)sulfonyl)-3-(2-(pyridin-2-yl)vinyl)-1H-indazole], the IC50 at BaF3-ETV6-NTRK3 turned out to be 155 nM; on TRKC, 2.8 nM; against TRKB, 7 nM; on BaF3-ETV6-NTRK2, 175 nM; against TRKA, 1.2 nM; at BaF3-CD74-NTRK1 it was 411 nM.

Consider `Clc1cccc(Cc2ccc3[nH]nc(/C=C/c4ccccn4)c3c2)c1` [DYX-134X, (E)-5-(3-chlorobenzyl)-3-(2-(pyridin-2-yl)vinyl)-1H-indazole], for which the IC50 was 846 nM against BaF3-ETV6-NTRK3; 28.3 nM on TRKC; 211 nM against TRKB; 1880 nM against BaF3-ETV6-NTRK2; 70.9 nM on TRKA; 2360 nM against BaF3-CD74-NTRK1.

As for `Fc1cc(F)cc(CNc2ccc3[nH]nc(/C=C/c4ccccn4)c3c2)c1` [DYX-185, (E)-N-(3,5-difluorobenzyl)-3-(2-(pyridin-2-yl)vinyl)-1H-indazol-5-amine], the concentration for half-maximal inhibition (IC50) against BaF3-ETV6-NTRK3 came out at 23.7 nM; on TRKC, 1.9 nM; against TRKB it was 10 nM; against BaF3-ETV6-NTRK2, 43.9 nM; at TRKA, 1.7 nM; against BaF3-CD74-NTRK1, 32.6 nM.

Take `Fc1cc(F)cc(NCc2ccc3[nH]nc(/C=C/c4ccccn4)c3c2)c1` [DYX-191, (E)-3,5-difluoro-N-((3-(2-(pyridin-2-yl)vinyl)-1H-indazol-5-yl)methyl)aniline]: the IC50 at BaF3-ETV6-NTRK3 worked out at 503 nM; against TRKC, 16.6 nM; against TRKB, 37.1 nM; on BaF3-ETV6-NTRK2, 667 nM; at TRKA, 9.1 nM; on BaF3-CD74-NTRK1, 264 nM.

As a reminder, the IC50 is the midpoint of a concentration-inhibition curve. The low end stands for higher potency, the high end for lower potency.
